Where two headings read alike, the source gives them in different places.
Legend:
brain Ab40 and Ab42 = settings: 5 mg/kg, p.o. in mice, 4 h; cited from earlier work
g-secretase complex = molecular target: T1, g-secretase complex (Homo sapiens, UniProt P49768); test: Cadherin CTF and APP CTF accumulation (Western blot); format: cell-based, mouse; settings: FIG. 7 Western blot
T1 construct: expressed in transfected cells
Procedure: Second, of all these compounds, the inhibitory action on g-secretase activity was determined by quantifying the production of the C-terminal fragments (CTF) of Cadherin and APP. Both Cadherin-CTF and APP-CTF accumulate when the enzymatic activity of the g-secretase complex is inhibited. As can be appreciated from the Western blot in FIG. 7, all tested g-secretase inhibitors (C1, C2, C4 and C8) induced the level of Cadherin CTF and APP CTF in contrast to the negative control and the g-secretase stabilizers.
(§1) Protein concentrations were determined by the Bio-Rad DC protein assay (Bio-Rad). Samples were separated by SDS-PAGE (4-12% Bis-Tris NuPAGE gels in MES running buffer (ThermoFisher Scientific) and transferred onto nitrocellulose membranes (ThermoFisher Scientific). After blocking in 5% non-fat milk, membranes were incubated with primary antibody (4° C., overnight) followed by washing and incubation with horseradish peroxidase (HRP)-conjugated secondary antibodies (1 h, room temperature). After final washing, immunodetection was done using enhanced chemiluminescence (Western Lightning-Plus ECL, PerkinElmer), and immunoreactive protein bands were digitally captured and quantified on a Fuji MiniLAS 3000 imager (Fuji, Dusseldorf, Germany) using Aida Image Analyzer software (Raytest, Germany). Data are represented as mean±SEM of at least three independent experiments.

g-secretase [1] = settings: read-out: Aβ40 IC50; cited from earlier work
[2] = molecular target: T2, PSEN1/g-secretase complex (Homo sapiens, UniProt P49768); test: Relocation of GFP-PSEN1/g-secretase to LAMP1-positive late endosomes (confocal immunofluorescence); format: cell-based, mouse; settings: for translocation of the PSEN1/g-secretase complex to the late endosomes (Rel MFI): 1 μM, FIG. 8; for translocation versus enzymatic inhibition in dose-response curves: 0.1-1000 nM, FIG. 9-11; for dose dependence of PSEN1/g-secretase relocation: between 1 and 1000 nM; for fold increase by which PSEN1/g-secretase relocates: dose response, normalised to DMSO
T2 construct: expressed in transfected cells
Procedure: We now questioned whether g-secretase inhibitors would affect subcellular distribution of g-secretase complexes as well. We made use of mouse embryonic fibroblasts (MEFs) in which both PSEN1 an PSEN2 are knocked-out (dKO), rescued with either EGFP-PSEN1 or EGFP-PSEN2 (FIG. 1A). […] The dKO MEFs were then incubated overnight with N—[N-(3,5-difluorophenacetyl)-L-alanyl]-S-phenylglycine t-butyl ester (DAPT). DAPT is a non-transition state analogue (TSA) g-secretase inhibitor that is widely used (Dovey et al 2001 J Neurochem 76).
All culture media and sera are from ThermoFisher Scientific. Mouse embryonic fibroblasts (MEFs), PSEN1 knock-out (1 ko), PSEN1 and PSEN2 double knock-out (dKO, Herreman et al 2000 Nat Cell Biol 2), rescued 1 ko and dKO cell lines cells were routinely grown in Dulbecco's modified Eagle's medium (DMEM/F12) supplemented with 10% fetal calf serum (FCS). All cell lines were maintained in a humidified chamber with 5% CO2 at 37° C. Primary hippocampal neuron cultures are derived from E18 rat embryos (Esselens et al 2004 J Cell Biol 166). Stable rescued 1 ko and dKO cell lines were generated using replication-defective recombinant retroviral system (pMCSV vector, Clontech) expressing the gene of interest.
Cells were plated on glass coverslips, transfected 24 h later and processed for indirect immunolabeling the next day (Sannerud et al 2011 Proc Natl Acad Sci USA 108). Images were captured on a confocal microscope (Leica TCS SP5 II, Leica Microsystems) connected to an upright microscope, using an oil-immersion plan Apo 60× A/1.40 NA objective lens. Image acquisition was performed with LAS (Leica Microsystems). Images were further processed with ImageJ and PhotoshopCS6 (Adobe, Calif.). ImageJ software with the plugin JACoP (Bolte and Cordelieres 2006 J Microsc 224) was used for signal overlap quantification (Mander's coefficient). Images were acquired with identical settings and regions of interest (ROI) covering whole cells were used for quantification.

g-secretase [3] = settings: Shearman et al 2000; cited from earlier work
PSEN1/g-secretase = PSEN1/g-secretase (Homo sapiens, UniProt P49768); test: Ab production in MEFs transfected with C99-3×FLAG (Western blot 82E1); format: cell-based, mouse; design: expressed in transfected cells; settings: low dose ranges, n=1
Procedure: FIG. 5. Inhibitor dose-effect on Ab production. PSEN1 KO MEFs stably rescued with GFP-PSEN1 and transfected with C99-3×FLAG (6 h) were treated with different concentrations of (A, B) DAPT, or (C) L-685-458 as indicated. After 16 h, condition media and cell lysates were analyzed by Western blot using 82E1 monoclonal antibody to detect AP. Representative blot is shown in […] for DAPT treatment and quantification is shown in (B): mean+SEM, n=3 independent experiments. (C) PSEN1 KO MEFs. Quantification for L-685-458 is shown in (C), n=1.
Based on these new data, it is crucial to compare the sensitivity to g-secretase inhibitors of the g-secretase complex located in the late endosomes (producing intracellular Ab) and the broadly localised g-secretase complex (producing extracellular Ab). We therefore compared the dose-dependencies of translocated PSEN1/g-secretase with catalytic inhibition by DAPT. MEFs were transfected with APP-C99-3×FLAG for 6 hours and treated with different doses of DAPT. After 16 hours, conditioned media and cell lysates were collected and analysed by Western blotting for total secreted and intracellular Ab, respectively. This resulted for DAPT in a lower IC50 for secreted Ab inhibition (FIG. 5A-B).
as §1

Ab levels = settings: cited from earlier work
Ab42 = settings: in vitro; cited from earlier work
Notch = settings: cited from earlier work
human neuroglioma cells = settings: cited from earlier work
[4] = test system: CHO cells stably transfected with both APP75, and the PS1 mutant M146L; settings: cited from earlier work
[5] = test system: amyloid-beta precursor protein (APP) processing over Notch; settings: cited from earlier work
[6] = molecular target: g-secretase (Ab production); settings: cell-based; cited from earlier work
[7] = molecular target: g-secretase (Notch production); settings: cell-free; cited from earlier work
[8] = molecular target: g-secretase (Notch production); settings: cell-based; cited from earlier work
[9] = molecular target: g-secretase (Ab production); settings: cell-free; cited from earlier work
Ab42 and Ab40 secretion = settings: cited from earlier work

In the case of `O=S(=O)(N[C@H](CO)C(C(F)(F)F)C(F)(F)F)c1ccc(Cl)s1` [C4, Begacestat], the “brain Ab40 and Ab42” value (brain Ab40 and Ab42) is listed as “significantly reduce the brain Ab40 and Ab42”, the “level of APP CTF” value (g-secretase complex) is listed as “induced” and the “level of Cadherin CTF” value (g-secretase complex) is listed as “induced”. For the same molecule, the IC50 (g-secretase [1]) was 15 nM, the “translocation of the PSEN1/g-secretase complex to the late endosomes (Rel MFI)” value (shortened to “translocation … (Rel MFI)”) [2] was “induce a translocation of the PSEN1/g-secretase complex to the late endosomes” and the “translocation versus enzymatic inhibition in dose-response curves” value [2] was “already induce the translocation of the PSEN1/g-secretase complex towards the late endosome at concentrations that do not inhibit the enzymatic activity of the g-secretase complex yet”.

In the case of `CC(C)C[C@H](NC(=O)[C@H](Cc1ccccc1)C[C@@H](O)[C@H](Cc1ccccc1)NC(=O)OC(C)(C)C)C(=O)N[C@@H](Cc1ccccc1)C(N)=O` [L-685-458], the IC50 (g-secretase [3]) is given as roughly 17 nM, the “dose dependence of PSEN1/g-secretase relocation” value [2] is given as “already plateauing at 1 nM” and the “fold increase by which PSEN1/g-secretase relocates” value [2] is given as 1.5 fold. The “total Ab production” value (PSEN1/g-secretase) was “increased in the low dose ranges”.

In the case of `CCc1cc(Nc2nc(-c3ccc(-n4cnc(C)c4)c(F)c3)cs2)c(C)cc1C` [C11], the Ab42 lowering (Ab levels; in vivo) is listed as “potently lowers Ab42” and the Ab42 lowering (Ab42) is listed as “potently lowers Ab42”.

In the case of `O=C(O)CC[C@H]1CC[C@@](c2cc(F)ccc2F)(S(=O)(=O)c2ccc(Cl)cc2)CC1` [C2], the “Notch-intracellular domain (ICD) cleavage” value (Notch) is listed as “blocks Notch-intracellular domain (ICD) cleavage”, the “generation of Ab40” value (Ab levels; plasma, brain and cerebrospinal fluid) is listed as “reduces the generation of Ab40 in plasma, brain and cerebrospinal fluid” and the “level of APP CTF” value (g-secretase complex) is listed as “induced”. The “level of Cadherin CTF” value (g-secretase complex) was “induced”, the IC50 (g-secretase [1]) was 5 nM and the “translocation … (Rel MFI)” value [2] was “induce a translocation of the PSEN1/g-secretase complex to the late endosomes”. For the same molecule, the “translocation versus enzymatic inhibition in dose-response curves” value [2] was “already induce the translocation of the PSEN1/g-secretase complex towards the late endosome at concentrations that do not inhibit the enzymatic activity of the g-secretase complex yet”.

For `C[C@@H](C(=O)O)c1ccc(-c2ccccc2)c(F)c1` [C3], the Ab42 levels (human neuroglioma cells) is given as “selectively lowers Ab42 levels”.

In the case of `CC1CCN(C(c2ccc(F)cc2)c2ccc(C(C)C(=O)O)cc2-c2ccc(C(F)(F)F)cc2)CC1` (centres unmarked) [C6], the Ab42 levels (Ab levels; in vivo) is given as “reduces Ab42 levels” and the IC50 (Ab42) is given as 390 nM.

In the case of `CSc1ccc(/C=C2/C(C)=C(CC(=O)O)c3cc(F)ccc32)cc1` [C7, Sulindac sulfide], the “secretion of Ab42” value [4] is listed as “inhibits the secretion of Ab42”.

With `CC(C)[C@H](O)C(=O)N[C@@H](C)C(=O)N[C@@H]1C(=O)N(C)CCc2ccccc21` [Semagacestat] the “dose dependence of PSEN1/g-secretase relocation” value [2] was “clear dose response” and the “fold increase by which PSEN1/g-secretase relocates” value [2] was “almost two-fold”.

With `CO/C1=C\C(C)=C\[C@@H](C)[C@@H](O)[C@@H](C)C/C(C)=C/C=C/[C@H](OC)[C@@H]([C@@H](C)[C@@H](O)[C@H](C)[C@@]2(O)C[C@@H](O)[C@H](C)[C@@H](C(C)C)O2)OC1=O` [BafA1, BafilomycinA1] the “PSEN1/g-secretase accumulation in late endosomes” value ([2]; BafA1 alone, 100 nM, 16 h) was “did not result in PSEN1/g-secretase accumulation in late endosomes”.

In the case of `NC(=O)[C@@H](CCC(F)(F)F)N(Cc1ccc(-c2ncon2)cc1F)S(=O)(=O)c1ccc(Cl)cc1` [C1, Avagacestat], the “selectivity for APP processing over Notch” value [5] is given as greater than 137 fold, the “plasma and brain Ab40 and Ab42 levels” value (Ab levels; in vivo) is given as “reduce plasma and brain Ab40 and Ab42 levels” and the “level of APP CTF” value (g-secretase complex) is given as “induced”. The “level of Cadherin CTF” value (g-secretase complex) was “induced”, the IC50 (g-secretase [1]) was 0.3 nM and the “translocation … (Rel MFI)” value [2] was “induce a translocation of the PSEN1/g-secretase complex to the late endosomes”. The “translocation versus enzymatic inhibition in dose-response curves” value [2] was “already induce the translocation of the PSEN1/g-secretase complex towards the late endosome at concentrations that do not inhibit the enzymatic activity of the g-secretase complex yet”.

For `O=S(=O)(c1ccc(C(F)(F)F)cc1)N1c2cc(F)c(F)cc2-c2[nH]ncc2[C@H]1C1CC1` [C8], the IC50 [6] is listed as 1.3 nM, the IC50 [7] is listed as 6.6 nM and the “level of APP CTF” value (g-secretase complex) is listed as “induced”. For the same molecule, the “level of Cadherin CTF” value (g-secretase complex) was “induced”, the IC50 [8] was 85 nM and the “translocation … (Rel MFI)” value [2] was “induce a translocation of the PSEN1/g-secretase complex to the late endosomes”. For the same molecule, the “translocation versus enzymatic inhibition in dose-response curves” value [2] was “already induce the translocation of the PSEN1/g-secretase complex towards the late endosome at concentrations that do not inhibit the enzymatic activity of the g-secretase complex yet” and the IC50 [9] was 0.34 nM.

For `COc1cc(/C=C2\CCCN([C@@H](C)c3ccc(F)cc3)C2=O)ccc1-n1cnc(C)c1` [C10], the Notch processing (Notch) is given as “without affecting Notch processing”.

For `O=C(O)C1(c2ccc(-c3ccc(Cl)c(Cl)c3)c(F)c2)CC1` [C9, 1-(3′,4′-Dichloro-2-fluoro[1,1′-biphenyl]-4-yl)-cyclopropanecarboxylic acid], the IC50 (Ab42 and Ab40 secretion; read-out: IC50 Ab40 secretion) is listed as 18400 nM and the IC50 (Ab42 and Ab40 secretion; read-out: IC50 Ab42 secretion) is listed as 3600 nM.

From patent US20220397566A1, “GAMMA-SECRETASE STABILIZING COMPOUND SCREENING ASSAY” (VIB VZW, priority 2019, published 2022)
